Experimental data reported in patent publication US6635629B2, “3-nitrogen-6,7-dioxygen steroids and uses related thereto” (Inflazyme Pharmaceuticals Ltd., priority 2000, dated 2003).
Where “and” joins values, the source holds several entries; their conditions need not be identical. Equal values may be shown once. Read-outs that look alike come from different tables or passages of the source.

What was measured:
[1] = system: rat mast cell line (RBL-2H3); test: Antigen-induced release of hexosaminidase from a rat mast cell line (RBL-2H3); assay type: cell-based; conditions: tested at 0.3, 3, 10 and 30 μM, read-out: Hex IC50
Method: The anti-allergic effects of a compound of the present invention was evaluated by measuring its effect on antigen-induced secretion of hexosaminidase from a passively sensitized rat mast cell line. The ability of a test compound to inhibit the release of mast cell granule contents, e.g., histamine and hexosaminidase, is indicative of the anti-allergy and/or anti-asthma activity of the compound. Hexosaminidase is released from the mast cell granule along with histamine and other mediators during antigen challenge. The test is performed as follows.
RBL-2H3 cells are grown in culture and passively sensitized for 1 hour at 37° C. to dinitrophenol (DNP) using anti-human-DNP (IgE). Cells are incubated with test compound for 30 minutes at 37° C. and stimulated with 0.5 μg/ml DNP-HSA (antigen) for 30 minutes. Aliquots of the supernatant are removed and used to measure the amount of hexosaminidase released during challenge with the antigen. […] The effect of each test compound is determined as a percentage of the antigen-induced response (minus background release) obtained in the presence of DMSO alone. These values are used to determine the degrees of inhibition of antigen-induced hexosaminidase release from the cells.

[2] = Metabolic stability in human liver S9 fractions; assay type: in vitro ADME; conditions: 10 μM
Description: The therapeutic effectiveness of a test compound can be often directly related to its metabolic stability in vivo. The majority of known, marketed drugs are metabolized by a group of enzymes known as P450 enzymes. The S9 fraction of human liver contains all the P450 enzymes and also cytoplasmic enzymes that may be involved in the metabolism of new chemical entities. Metabolism in vitro using human S9 fractions is a standard assay to evaluate relative metabolic stability of new compounds. The test is performed as follows.
Reagents are thawed on ice and combined to make up a Master Mix as follows: Potassium phosphate (100 mM, pH 7), G6P (0.25 mM), G6PDH (2 U/ml), NADPH (1 mM), UDP (0.25 mM), APPS (0.25 mM), and S9 fraction (2 mg/ml). A volume of 498 μl of the Master mix is dispensed into each microcentrifuge tube. A volume of 2 μl of 2.5 mM test compound (final concentration of 10 μM) is dispensed into the center of the lid of the appropriate tube, and the lids gently closed to prevent mixing. Synchronous combination of test compound and master mix is achieved by simultaneous ten times inversion of the tubes, which are then incubated at 37° C. and shaken at 150 rpm for the appropriate incubation times. While incubation is in progress, all 0 time samples are mixed individually by three times inversion followed by the immediate addition of 500 μl ice cold acetonitrile with three times inversion to stop the reaction. Immediately after each 15 minutes and 30 minutes incubation is complete, ice cold acetonitrile is added to each tube and the tubes mixed by three times inversion. All sample tubes are incubated at −80° C. for a minimum of 15 minutes, thawed and remixed by inversion. Aliquots of 650 μl are transferred to Chromatographic Specialties micro-spin filter system tubes (0.2 μm nylon membrane, C618505) and centrifuged at 13,000 rpm for 48 seconds. The sample filtrates are stored at −80° C.
Sample filtrates are analyzed on LCMS, and percent remaining after 15 and 30 minute incubation is calculated relative to the 0 minute incubation.
The metabolic stability of various compounds are summarized in Table 10 as the percent remaining after 15 or 30 minutes incubation with human liver S9 fractions.

[3] = system: Jurkat clone E6.1 cells; test: Antigen-induced (anti-CD3 mAb) calcium flux in Jurkat clone E6.1 cells; assay type: cell-based; conditions: 20 μM; anti-CD3 mAb 4 μg/mL; Fura 2AM
Description: Elevation of cytoplasmic calcium concentration is a common and crucial event which follows the activation of many types of cell surface receptors. Increases in intracellular calcium that occur following agonist activation of inositol lipid hydrolysis are the results of calcium release from the endoplasmic reticulum and the influx of calcium through the plasma membrane. Increases in cytosolic calcium concentration are involved in many important cellular responses in the inflammatory process including adhesion, motility, gene expression, proliferation, and degranulation. Changes in intracellular calcium centrations can affect both short and long term cellular responses. An assay method to evaluate a test compound's impact on calcium flux is provided as follows.
The resulting supernatants are discarded and each pellet is washed in 10 mL HBSS. Cell suspensions are accumulated and centrifuged for 5 minutes at 900 RPM to form a cell pellet. The resulting supernatant is discarded and the pellet is resuspended in HBSS at 1×10^7 cells/mL. The cell suspension is transferred to a 20 mm petri dish and incubated at 37° C., 5% CO2 for 20 minutes.
One volume of Fura 2AM is mixed to one volume of detergent Pluronic F127. Cells are labeled with 4 μL of probe solution to each mL of cell suspension. The petri dish is wrapped in aluminum foil to protect from light and placed on a plate shaker for 30 minutes at room temperature.
The following steps are done in the laminar flow hood with the fluorescent lights turned off. The petri dish is removed from the shaker and the labeled cell suspension is transferred to a 15 mL conical tube and washed twice with HBSS as above. The cell pellet is resuspended in 12 mL HBSS and left wrapped in foil for 30 minutes at room temperature. The labeled cell suspension is aliquoted (100 μL/well) into a Dynex 96 well white opaque tissue culture plate. […] Selected compounds were tested for dose related activity. Test samples and activator (anti—CD3 mAb at final concentration of 4 μg/mL, PharMingen) are added manually (50 μL), such that the minimum time to acquire the first data point after stimulation is approximately 30 seconds. The calcium influx response to anti-CD3 mAb is measured as an “end point” assay. The entire plate is read in 100 seconds using a kinetic of 1 second per well.
The plate is read before the addition of anti-CD3 to monitor non-specific effect of samples/drugs. Fluorescence emission is measured at 510 nm with excitation alternating between 340 and 380 every second using an excitation/emission filter pair. Data from these dual wavelengths are represented as a ratio of 2 excitations wavelengths. This ratio is independent of intracellular dye and cell concentrations, enabling real comparison between experiments.

[4] = system: sensitized Brown Norway rats; test: Ovalbumin-induced accumulation of inflammatory cells in lung lavage fluid of sensitized Brown Norway rats; assay type: in vivo, rat; conditions: p.o.
Method: The ability of a compound to inhibit the allergen-induced accumulation of inflammatory cells such as eosinophils and neutrophils in the lavage fluid obtained from sensitized animals is indicative of that compound's anti-asthma activity. […] The test is conducted as follows.
Male Brown Norway rats are sensitized to ovalbumin by single intraperitoneal injection of 1 mg ovalbumin adsorbed to 100 mg A(OH)3 (alum) in 1 ml sterile saline (saline control rats receive only sterile saline) on day 1, and allowed to sensitize until day 21. […] Rats are challenged with 0.5% ovalbumin in saline generated using a Devillbis nebulizer for 60 min on day 21.
Forty-eight hrs after challenge, animals are sacrificed with an overdose of intraperitoneally-delivered sodium pentobarbitol and the lungs are lavaged with cold 2×7 ml phosphate buffered saline. The recovered lavage fluid is placed on ice. The bronchoalveolar lavage fluid is centrifuged and the supernatant removed. The pellet is resuspended in phosphate buffered saline at 4° C. Cytospins are prepared and stained for differentiation and enumeration of cell types.
Test compound was administered in 300 μl corn oil (Tables 7 and 8) or water (Table 9), which were used as vehicles. Control animals received 300 μl corn oil or water alone, i.e., no drug. […] A negative value in Table 7, 8, or 9 indicates an exacerbation of the effect over the control animal.

[5] = inhibition of DNP-HSA antigen-induced hexosaminidase release
[6] = 0.1 mg/kg, 4 days qd, water vehicle
[7] = 0.3 mg/kg, 4 days qd, water vehicle
[8] = 1 mg/kg, 4 days qd, water vehicle
[9] = 37° C., 15 min incubation, relative to 0 minute incubation
[10] = 37° C., 30 min incubation, relative to 0 minute incubation
[11] = 5 mg/kg/day for 4 days, corn oil vehicle, relative to control animals
[12] = 1 mg/kg/day for 4 days, corn oil vehicle, relative to control animals

Row | SMILES | IC50 [1, 5] [µM] | % remaining after 15 min ([2]; human, s9, 15 min, pH 7) [%] | % remaining after 30 min ([2]; human, s9, 30 min, pH 7) [%] | Calcium (% inhibition at 20 μM) [3] [%] | % remaining after 15 min [2, 9] | % remaining after 30 min [2, 10] | % inhibition of eosinophils [4, 11] [%] | % inhibition of lymphocytes [4, 11] [%] | % inhibition of neutrophils [4, 11] [%] | also measured
1 | C=C1CCC2C3C(CC[C@]12C)[C@@]1(C)CCC(N)CC1[C@@H](OC)[C@@H]3OC (some centres unmarked) [Compound 79] | 18.4 | 67 ± 6 | 61 ± 14 | 9.1 |  |  |  |  |  | 
2 | C=C1CCC2C3C(CC[C@]12C)[C@@]1(C)CC[C@@H](NC(=O)Nc2ccccc2)CC1[C@@H](O)[C@@H]3O (some centres unmarked) [Compound 137] |  | 93 ± 31 | 71 ± 17 |  |  |  |  |  |  | 
3 | CCC1(C)CCC2=C1CCC1C2C(O)C(O)C2CC(N)CCC21C.Cl (centres unmarked) [Compound 143] | 8.6 |  |  | 22.6 | 100% and 100 ± 3% | 100% and 99 ± 10% |  |  |  | % inhibition of eosinophils [4, 6]: 28%; % inhibition of lymphocytes [4, 6]: −43%; % inhibition of neutrophils [4, 6]: 57%; % inhibition of eosinophils [4, 7]: 29%; % inhibition of lymphocytes [4, 7]: −37%; % inhibition of neutrophils [4, 7]: 25%; % inhibition of eosinophils [4, 8]: 48%; % inhibition of lymphocytes [4, 8]: −22%; % inhibition of neutrophils [4, 8]: 64%
4 | COC(=O)C=C1CCC2C3C(CC[C@]12C)[C@@]1(C)CCC(N)CC1[C@@H](O)[C@@H]3O (some centres unmarked) [Compound 69] |  | 73 ± 24 | 63 ± 6 |  |  |  |  |  |  | 
5 | CC(F)=C1CCC2C3C(CC[C@]12C)[C@@]1(C)CCC(N)CC1[C@@H](O)[C@@H]3O (some centres unmarked) [Compound 64] |  | 104 ± 4 | 88 ± 5 |  |  |  | 62 | 81 | 70 | 
6 | COc1ccc(CNC2CCC3(C)C(C2)C(O)C(O)C2C4=C(CCC23)C(C)(C)CC4)cc1OC.Cl (centres unmarked) [Compound 142] | 15.9 |  |  | 13.8 | 80 ± 11% | 55 ± 2% |  |  |  | % inhibition of eosinophils [4, 12]: −131%; % inhibition of lymphocytes [4, 12]: −42%; % inhibition of neutrophils [4, 12]: −1%
7 | CC=C1CCC2C3C(CC[C@]12C)[C@@]1(C)CCC(N)CC1[C@@H](O)[C@@H]3O (some centres unmarked) [Compound 49] | 11 | 93 ± 6 | 85 ± 8 | 26.8 |  |  | 52 | 73 | 36 | 
8 | CCC1CCC2C3C(CC[C@]12C)[C@@]1(C)CCC(N)CC1[C@@H](O)[C@@H]3O (some centres unmarked) [Compound 96] |  | 92 ± 19 | 94 ± 21 |  |  |  | −9 | 19 | 40 | 
9 | CCC1CCC2C3C(CC[C@]12C)[C@@]1(C)CCC(N)CC1[C@@H](O)[C@@H]3O (some centres unmarked) [Compound 97] | 9.3 | 94 ± 10 | 89 ± 12 | 43.0 |  |  | 40 | 56 | 52 | 
10 | CC1(C)CCC2=C1CCC1C2[C@@H](O)[C@H](O)C2C[C@@H](N)CC[C@]12C (some centres unmarked) [Compound 139] | 10.3 |  |  | 26.3 | 100% | 100% |  |  |  | 
11 | C=C1CCC2C3C(CC[C@]12C)[C@@]1(C)CCC(N)CC1[C@@H](O)[C@@H]3O (some centres unmarked) [Compound 53] |  |  |  | −0.8 |  |  | 24 | 13 | 57 | IC50 ([1]; Rattus norvegicus, RBL-2H3, inhibition of DNP-HSA antigen-induced hexosaminidase release): 17.6 µM
12 | CC(F)=C1CCC2C3C(CC[C@]12C)[C@@]1(C)CCC(N)CC1[C@@H](O)[C@@H]3O (some centres unmarked) [Compound 95] | 13.5 |  |  | 11.2 |  |  | 14 | 30 | 45 | 
13 | CCC1(C)CCC2=C1CCC1C2C(O)C(O)C2CC(NCc3ccccc3)CCC21C.Cl (centres unmarked) [Compound 146] | 9 |  |  | 41.7 | 82 ± 6% | 63 ± 9% |  |  |  | % inhibition of eosinophils [4, 12]: 8%; % inhibition of lymphocytes [4, 12]: −27%; % inhibition of neutrophils [4, 12]: 24%
14 | CC1(C)CCC2=C1CCC1C2C(O)C(O)C2CC(NCc3ccc(F)c(F)c3)CCC21C.Cl (centres unmarked) [Compound 141] | 9.4 |  |  | 36.3 | 100 ± 9% | 26 ± 4% |  |  |  | 
